The text below walks through data of patent US20230218632A1, “CYCLIC SULFONAMIDE DERIVATIVES AS TRAP1 MODULATORS AND USES THEREOF” (Amathus Therapeutics, Inc., priority 2020, published 2023).

The subject of one assay is mIMCD3 Pkd1 KO cells. Put plainly: Mouse cell derived cyst assay. The conditions noted are these: Pkd 1 KO mouse cell derived cyst forming assay; FIG. 6. The class given is cell-based. The procedure:
Mouse cell derived cyst assays were performed as described in Booij, Tijmen H et al., SLAS discovery: advancing life sciences R & D vol. 22,8 (2017): 974-984, or as described below.
Murine inner medullary collecting duct cell line (mIMCD3 Pkd1^-/- cells) • mIMCD3 Pkd1 KO cells were seeded in 384 wells plates in extracellular matrix. • 4 days after seeding, cultures were co-exposed to treatments and stimuli (2.5 µM forskolin); • After 72 h, cultures were fixed, stained for nuclei and actin cytoskeleton and imaged with 4x magnification; and • Image analysis of the 3D stack was done using Ominer™ image analysis software.

For the next assay, the target named is T1, TRAP1 enzyme (Homo sapiens, UniProt Q12931).
T1 sequence (Q12931 60-704): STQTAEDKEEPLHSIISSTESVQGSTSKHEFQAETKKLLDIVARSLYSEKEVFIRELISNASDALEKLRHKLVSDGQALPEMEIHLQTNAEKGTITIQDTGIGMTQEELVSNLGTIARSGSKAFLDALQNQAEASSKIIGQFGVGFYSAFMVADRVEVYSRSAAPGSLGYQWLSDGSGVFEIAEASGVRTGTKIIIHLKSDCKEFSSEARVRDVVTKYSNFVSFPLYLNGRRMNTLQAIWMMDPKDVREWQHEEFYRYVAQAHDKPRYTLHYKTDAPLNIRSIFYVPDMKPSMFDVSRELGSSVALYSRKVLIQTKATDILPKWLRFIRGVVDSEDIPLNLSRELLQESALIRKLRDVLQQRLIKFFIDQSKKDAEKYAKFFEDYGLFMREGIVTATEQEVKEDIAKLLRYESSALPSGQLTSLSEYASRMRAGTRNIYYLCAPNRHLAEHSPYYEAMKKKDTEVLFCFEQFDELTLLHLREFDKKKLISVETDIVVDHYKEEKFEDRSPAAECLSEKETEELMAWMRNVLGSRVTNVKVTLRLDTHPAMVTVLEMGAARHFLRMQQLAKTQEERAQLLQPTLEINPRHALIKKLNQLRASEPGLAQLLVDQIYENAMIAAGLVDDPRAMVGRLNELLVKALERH
Put plainly: ADP Glo assay (ATPase activity of TRAP1). The class given is biochemical. The method in brief:
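150 nM TRAP1 preincubated 30 min at 37 °C with compound (0.79–100 µM) in 25 mM Pipes pH 7.5, 40 mM KCl, 0.05 mM MgCl2; reaction started with 20 µM ATP, 60 min at 37 °C. ADP quantified by ADP-Glo luminescence against an ATP/ADP standard curve; Emax and EC50 from sigmoidal fits of activation.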

One may read the EC50 as the concentration needed to bring the measured effect to its halfway point. A word on the Emax: it is the greatest response seen or fitted, relative to the assay's reference. As for `O=C(Nc1ccc2c(c1)S(=O)(=O)N(c1ccc(Br)cc1)CCO2)c1cnc(-c2ccccc2)[nH]1` [Compound 1331, N-(2-(4-bromophenyl)-1,1-dioxido-3,4-dihydro-2H-benzo[b][1,4,5]oxathiazepin-8-yl)-2-phenyl-1H-imidazole-5-carboxamide], the cyst formation entry in the assay on mIMCD3 Pkd1 KO cells is “preventing cyst formation”. The EC50 at TRAP1 enzyme (150 nM Trap1, 20 µM ATP, concentration for half maximal activation, read-out: ADP GLO DRC: GeoMean EC50) is < 20 µM. The Emax at TRAP1 enzyme (maximal percent activation, read-out: ADP GLO DRC: Mean Emax) is 150 to 200%.
